Source: US7875270B2, “Treatment solution and method for preventing posterior capsular opacification by selectively inducing detachment and/or death of lens epithelial cells” (Abbott Medical Optics Inc., priority 2002, dated 2011)

What was measured:
[1] = system: human LECs-CCCs freshly removed from cataract operation; experiment: In situ treatment of LECs attached to capsulorhexis lens capsule (LECs-CCC); format: cell-based
Procedure: The in situ effects of a treatment solution comprising dihydrochlorothiazide (DHCT) (a cotransport interference agent from the group of the thiazide and related diuretics) and hyperosmotic NaCl on human LECs is examined. The treatment is tested on LECs that are still attached to a continuous curvilinear capsulorhexis lens capsule (LECs-CCC) which are freshly removed from a human cataract operation.
The LECs-CCCs are obtained from a cataract operation and immediately put in freshly prepared Eagle's Minimum Essential Medium (MEM) supplemented with 2 mM glutamine, 25 mmol/L Hepes (pH 7.4) without foetal cow serum (FCS) and is transferred to the laboratory for evaluation. Viable LECs are identified by staining the LECs-CCCs for five minutes with 0.2% Trypan Blue. The sheets containing more than 70% viable LECs are used to assess the efficacy of the treatment. […]
In the first step, a hyperosmotic solution of NaCl is prepared by making a stock solution of 2 M NaCl by adding 58.44 g NaCl (supplied by Sigma Chemical Co., U.S.) to 500 ml dH2O. The desired concentration of osmotic NaCl is prepared by diluting the 2M stock solution with dH2O. For example, to make a hyperosmotic solution of 170 mM NaCl, the 2M NaCl stock solution was diluted with dH2O at a ratio of […]. To make a hyperosmotic solution of 200 mM NaCl, the 2M NaCl stock solution is diluted with dH2O at a ratio of 1 to 9. Final osmolarities (mOsm/kg/H2O) are determined by a freezing point depression method using cryoscopic osmometry.
In the second step, DHCT stock solution is made by adding 25 mg DHCT to 1 ml dH2O. […]
The treatment is applied by exposing the LECs-CCCs for five minutes in a small petri dish containing the treatment solution. The treatment solution is removed after five minutes exposure by a syringe and then the fresh PBS is added in the petri dish to wash away the treatment solution. The LECs-CCCs are washed three times. The changes of the LECS are monitored under a microscope. Microscope photographs are taken at 0, 2 and 5 minutes and after wash.

in vivo rabbit eyes = experiment: In vivo prevention of PCO after cataract operation in rabbit eyes; conditions: DHCT and hyperosmotic NaCl
Procedure: The experimental group includes sixteen rabbit eyes and the control group includes four rabbit eyes. A sham cataract operation is performed on the control animals. The therapy is introduced to the others.
The pupil of each rabbit eye is preoperatively dilated with topical G Phenylephrine 10% (Alcon Labs., Inc., China) and G Cyclopentolate 1% (Bausch & Lomb Pharm., Inc., USA) three times in one hour. The rabbits are anesthetized with ketamine hydrochloride (5 mg kg-1) and xylazine hydrochloride (2 mg kg-1) and placed on an operating table. A topical anesthetic (Dieaine hydrochloride 1%) is used every five minutes on two occasions. A wire lid speculum is placed to hold the eyelids open.
A 3.2 mm scleral tunnel incision into the eye is formed at the temporal limbus. The anterior chamber is maintained with viscoelastic substances and a 4-5 mm diameter continuous curvilinear capsularhexis (CCC) is made on the anterior surface of the lens to open its bag. The treatment solution is first introduced in the LECs by hydrodissection. This ensures that the treatment fluid immediately reaches under the entire anterior capsule/LECs. This process allows for (i) separation of the lens cortex from the capsule and lens epithelium, making removal of the lens cortex easier at a later stage of the operation and (ii) the LECs to be exposed to the treatment for enough time (more than five minutes in total time).
The crystalline lens is then removed using phacoemulsification (Universal II, Alcon Labs., Inc., China). The remaining cortex is aspirated thoroughly and removed as completely as possible to expose the LECs. The lens capsular bag is then partially filed with viscoelastic material in order to maintain its shape. The viscoelastic material should not cover the LECs when the treatment solution is applied.
The treatment is spread over the inner surface of the anterior capsular bag (where the LECs attach). The anterior capsular is continuously filled by using a syringe with a bent needle. Care is taken not to over flow the bag. After the treatment solution covered the capsule bag, it is left for five minutes and then removed using a syringe.
In a few cases, IOLs are inserted. […] At the same time, the incision is enlarged to 6.0 mm and a posterior ocular lens (IOLs) (poly-methyl methacrylate, PMMA) with a 6.5 mm optic is prepared and placed into the capsular bag.
The wound is closed with or without suture.
At the completion of the surgical procedure, each rabbit eye receives subconjunctival dexamethasone (0.25 ml) and gentamicin (0.25 ml). Postoperatively, atropine sulphate 1% ophthalmic solution and neomycin sulphate-polymyxin sulphate-dexamethasone ophthalmic ointment are administered twice daily for three weeks.
The animals are evaluated for three weeks and ten weeks. […] All rabbits are evaluated by slitlamp and scored for ocular responses at 1 day and at 1, 2 and 3 weeks. (See FIG. 17, Table 1.) Three and ten weeks after surgery, the animals are anesthetized using a 2 ml intramuscular injection of 11:1 mixture of ketamine hydrochloride and xylazine 20 mg/ml and then killed with a 2 ml intravenous injection of sodium pentobarbital.
The eye globes are enucleated (some of them fixed in neutral buffered formalin 10% solution for 24 hours) and are bisected coronally just anterior to the equator. Gross examination is performed to assess. PCO development. Photographs are taken from behind (Miyake-Apple posterior photographic technique) by using a digital camera fitted to an operating microscope (Leica/Wild MZ-8, Vashaw Scientific, Inc.).
The extent and severity of PCO is scored (see FIG. 17, Table 1) according to methods reported in the literature. The lens capsules are then fixed and evaluated under a microscope (Olumpus, Optical Co. Ltd.) and photographed with a digital camera.

Compound	living LECs after rinsing ([1]; 10 or 100 μm gramicidin and PBS)	LEC changes after exposure ([1]; 10 or 100 μm gramicidin and PBS, five minutes)	LEC changes after exposure ([1]; 170 or 200 mM NaCl and 200 or 300 μm DHCT, pH ±7.8, five minutes)	living LECs after wash ([1]; 200 μm DHCT and hyperosmotic ≦200 mM NaCl)	Soemmering's ring (in vivo rabbit eyes)	intraocular inflammatory reaction and deposits (in vivo rabbit eyes; 3 and 10 weeks post-treatment)	development of central PCO (CPCO) and peripheral PCO (PPCO) (in vivo rabbit eyes; three or ten weeks post-treatment)	lens epithelial cells in pupil area (phase contrast) (in vivo rabbit eyes; three weeks after surgery, no IOLs insertion)
gramicidin	no living cells remain	shrink and large gaps gradually form between the cells. The shrinking cells then gradually round up and burst						
NS(=O)(=O)c1cc2c(cc1Cl)NCNS2(=O)=O [DHCT, dihydrochlorothiazide]			shrink and gradually large gaps form between the cells. The shrinking cells then gradually round up and burst	no living cells can be observed	Most eyes did develop some degree of Soemmering's ring	minimal intraocular inflammatory reaction and deposits on the lens capsule surface	No central PCO(CPCO) (the area within the pupillary area) and peripheral PCO (PPCO) (within 6-6.5 mm outside the pupillary area) is found to have developed	no remaining lens epithelial cells
